Measured values reported in patent publication US20190060384A1, “COMPOSITION FOR TREATMENT OR PREVENTION OF LUNG CANCER AND A METHOD THEREFORE” (priority 2017, published 2019).

What was measured:
[1] = Pharmacokinetics of gefitinib after repeated oral Lonicera flos; format: in vivo, Sprague-Dawley rats; settings: for concentration at 0.5 h: 0.50 h; for AUC(0-t) / Cmax / Tmax / half-life: po, average
[2] = test system: NCI-H520 non-small cell lung cancer cell xenograft; experiment: NCI-H520 xenograft nude mice: tumor volume and tumor weight; format: in vivo, athymic nude mice
Description: (§1) (1) Anticancer effects: Changes in tumor volume, tumor weight, tumor cell volume in a formed mass, and apoptotic cell percentages, and changes in immunoreactivities of caspase-3, PARP, NT, 4-HNE, CD31, Ki-67, COX-2, iNOS, and TNF-α in the formed mass

NCI-H520 tumor mass = experiment: NCI-H520 xenograft nude mice: tumor mass histopathology and immunohistochemistry; format: in vivo, athymic nude mice
Description: as §1

[3] = test system: NCI-H520 cell xenograft nude mice; experiment: NCI-H520 xenograft nude mice: tumor-related cachexia (body weight, periovarian fat pad); format: in vivo, athymic nude mice
[4] = test system: NCI-H520 cell xenograft nude mice; experiment: NCI-H520 xenograft nude mice: immune organ weights and histopathology (spleen, submandibular lymph node); format: in vivo, athymic nude mice
[5] = test system: NCI-H520 cell xenograft nude mice; experiment: NCI-H520 xenograft nude mice: serum IL-6 and IFN-γ contents; format: in vivo, athymic nude mice; settings: vs tumor xenograft control, 35 days
Description: (3) Effects of suppressing tumor-related cachexia: Changes in body weight, periovarian fat pad weight, and serum IL-6 content and histological change in a periovarian fat pad

[6] = test system: NCI-H520 cell xenograft nude mice; experiment: NCI-H520 xenograft nude mice: splenic and peritoneal NK cell activity; format: in vivo, athymic nude mice; settings: vs tumor xenograft control, 35 days
[7] = test system: NCI-H520 cell xenograft nude mice; experiment: NCI-H520 xenograft nude mice: splenic cytokine contents (TNF-α, IL-1β, IL-10); format: in vivo, athymic nude mice
[8] = male, ICR (CrljOri:CD1[ICR]), mouse, in vivo, po
Description: Day 28; mortality, clinical symptoms, change in body weight, autopsy findings, hematological (14 items; Table 18) and hematochemical (20 items; Table 19) changes, histopathological changes (23 organs: brain cerebrum, cerebellum and bulbar, heart, thymus, lung, testis, epididymis, kidney, adrenal gland, spleen, liver, pancreas, alimentary tract esophagus, fundic portion, pyloric portion, duodenum, jejunum, ileum, cecum, colon and rectum, submandibular lymph node), and changes in content of liver lipid peroxidation and antioxidant defense system glutathione (GSH), and catalase (CAT) and superoxide dismutase (SOD) activities.

[9] = male, Sprague-Dawley, rat, plasma, oral, 10 mg/kg, gefitinib 10 mg/kg oral, control (saline) rats
[10] = male, Sprague-Dawley, rat, plasma, oral, gefitinib 10 mg/kg oral after Lonicera flos 300 mg/kg oral 15 days
[11] = male, Sprague-Dawley, rat, plasma, 10 mg/kg, gefitinib 10 mg/kg oral, Control
[12] = male, Sprague-Dawley, rat, plasma, 10 mg/kg, gefitinib 10 mg/kg oral, Lonicera japonica group (15 days pre-treatment)
[13] = NCI-H520 xenograft nude mice, baseline
[14] = NCI-H520 xenograft nude mice, oral once daily 35 days
[15] = tumor mass, oral once daily 35 days
[16] = vs tumor xenograft control, 35 days

COc1cc2ncnc(Nc3ccc(F)c(Cl)c3)c2cc1OCCCN1CCOCC1 [Gefitinib, gefitinib]
concentration at 0.5 h [1, 9]: 703 ng/mL | concentration at 1 h [1, 9]: 805 ng/mL | concentration at 3 h [1, 9]: 762 ng/mL | concentration at 7 h [1, 9]: 824 ng/mL | concentration at 10 h [1, 9]: 439 ng/mL | concentration at 24 h [1, 9]: 70 ng/mL | concentration at 0.5 h [1, 10]: 571 ng/mL | concentration at 1 h [1, 10]: 645 ng/mL | concentration at 3 h [1, 10]: 531 ng/mL | concentration at 7 h [1, 10]: 579 ng/mL | concentration at 10 h [1, 10]: 430 ng/mL | concentration at 24 h [1, 10]: 53 ng/mL | concentration at […] ([1]; male, Sprague-Dawley, rat, plasma, oral, gefitinib 10 mg/kg oral after Lonicera flos 300 mg/kg oral 15 days, […]): 274 ng/mL | AUC(0-t) [1, 11]: 10800 ng·h/mL | Cmax [1, 11]: 921 ng/mL | Tmax [1, 11]: 3.55 h | half-life [1, 11]: 303 min | AUC(0-t) [1, 12]: 8740 ng·h/mL | Cmax [1, 12]: 736 ng/mL | Tmax [1, 12]: 2.89 h | half-life [1, 12]: 290 min | time of maximum plasma concentration after administration ([1]; orally administered, rats): about 4 hours | Tumor volume First administration [A] [2, 13]: 459.88 ± 129.50 mm^3 | Tumor mass absolute weight [2, 14]: 1.321 ± 0.191 g | Tumor volume Sacrifice [B] [2, 14]: 2486.04 ± 480.24a mm^3 | change of the amount of change in tumor volume ([2]; vs tumor xenograft group, 5 weeks): −68.18% | change in tumor absolute weight ([2]; vs tumor xenograft group, 35 days): −47.72% | Immunoreactive cell percentages: 4-hydroxynonenal (NCI-H520 tumor mass; [15]): 29.12 ± 8.55a %/tumor cells | Immunoreactive cell percentages: CD31 (NCI-H520 tumor mass; [15]): 29.90 ± 5.37a %/tumor cells | Immunoreactive cell percentages: Cleaved caspase-3 (NCI-H520 tumor mass; [15]): 25.77 ± 5.73d %/tumor cells | Immunoreactive cell percentages: Cyclooxygenase-2 (NCI-H520 tumor mass; [15]): 56.48 ± 12.30 %/tumor cells | Immunoreactive cell percentages: INOS (NCI-H520 tumor mass; [15]): 5.34 ± 1.44 %/tumor cells | Immunoreactive cell percentages: Ki-67 (NCI-H520 tumor mass; [15]): 45.34 ± 7.63a %/tumor cells | Immunoreactive cell percentages: Nitrotyrosine (NCI-H520 tumor mass; [15]): 32.93 ± 10.64d %/tumor cells | Immunoreactive cell percentages: PARP (NCI-H520 tumor mass; [15]): 22.27 ± 10.20d %/tumor cells | Tumor cell volume (NCI-H520 tumor mass; [15]): 54.48 ± 12.96a %/mm2 | change in proportion of the tumor tissue occupied by 4-HNE immunoreactive cells (NCI-H520 tumor mass; vs tumor xenograft control): 928.20% | change in proportion of the tumor tissue occupied by CD31 immunoreactive cells (NCI-H520 tumor mass; vs tumor xenograft control): −41.30% | change in proportion of the tumor tissue occupied by COX-2 immunoreactive cells (NCI-H520 tumor mass; vs tumor xenograft control): 6.37% | change in proportion of the tumor tissue occupied by Ki-67 immunoreactive cells (NCI-H520 tumor mass; vs tumor xenograft control): −41.57% | change in proportion of the tumor tissue occupied by NT immunoreactive cells (NCI-H520 tumor mass; vs tumor xenograft control): 368.85% | change in proportion of the tumor tissue occupied by PARP immunoreactive cells (NCI-H520 tumor mass; vs tumor xenograft control): 673.85% | change in proportion of the tumor tissue occupied by TNF-α immunoreactive cells (NCI-H520 tumor mass; vs tumor xenograft control): 417.98% | change in proportion of the tumor tissue occupied by caspase-3 immunoreactive cells (NCI-H520 tumor mass; vs tumor xenograft control): 364.72% | change in proportion of the tumor tissue occupied by iNOS immunoreactive cells (NCI-H520 tumor mass; vs tumor xenograft control): −11.83% | change in proportion of the tumor tissue occupied by tumor cells (NCI-H520 tumor mass; vs tumor xenograft control): −30.68% | Body weight gains ([3]; NCI-H520 xenograft nude mice, 35 days, based on actual body weight): −0.40 ± 1.01ac g | Body weights At first administration [3, 13]: 18.15 ± 1.42 g | Actual body weights (excluding tumor weight) [3, 14]: 17.75 ± 1.11ac g | Body weights At sacrifice [3, 14]: 19.08 ± 1.14ac g | Periovarian fat pad White adipocyte diameters [3, 14]: 13.52 ± 3.46 μm | Periovarian fat pad absolute weight [3, 14]: 0.008 ± 0.002e | change in accumulated periovarian fat pad thickness ([3]; vs tumor xenograft control): −11.13% | change in average periovarian white fat pad cell diameter ([3]; vs tumor xenograft control): 4.41% | change in periovarian fat pad absolute weight [3, 16]: −1.52% | change in actual body weight excluding the tumor weight ([3]; vs tumor xenograft control, final sacrifice date): −8.18% | Spleen Total thickness [4, 14]: 1097.00 ± 237.39a μm/central regions | Spleen White pulp diameters [4, 14]: 334.72 ± 47.47e μm/white pulp | Spleen White pulp numbers [4, 14]: 6.13 ± 1.81e /mm2 | Spleen absolute weight [4, 14]: 0.059 ± 0.010a | Submandibular lymph node Cortex lymphoid cell follicle numbers [4, 14]: 7.50 ± 2.39a /mm2 | Submandibular lymph node Cortex thickness [4, 14]: 155.92 ± 34.47a μm/lymph node | Submandibular lymph node Total thickness [4, 14]: 441.48 ± 114.06a μm/central regions | Submandibular lymph node absolute weight [4, 14]: 0.003 ± 0.001a | change in cortex lymphoid cell follicle numbers ([4]; vs tumor xenograft control): 15.38% | change in submandibular lymph node total thickness ([4]; vs tumor xenograft control): −8.92% | change in total splenic thickness ([4]; vs tumor xenograft control): −1.17% | change in splenic absolute weight [4, 16]: −1.46% | change in submandibular lymph node absolute weight [4, 16]: 4.00% | change in serum IFN-γ content [5]: −0.62% | change in serum IL-6 content [5]: 2.09% | change in peritoneal NK cell activity [6]: −4.12% | change in splenic NK cell activity [6]: −6.16% | Splenic Interleukin-1β content [7, 14]: 7.82 ± 2.32 days | Splenic Interleukin-10 content [7, 14]: 23.39 ± 12.60a | change in content of splenic IL-1β [7, 16]: −3.08% | change in content of splenic IL-10 [7, 16]: −7.27% | change in content of splenic TNF-α [7, 16]: −4.79% | Mortality, Days of treatment Periods (Day 0~27) [8]: 0
